# Measured values from patent publication US20240425478A1, “CYCLOPENTYLPYRAZOLE CDK2 INHIBITORS” (Genentech, Inc., priority 2021, published 2024).
# Read-outs that look alike come from different tables or passages of the source.
# Columns and labels:
# [1] = system: SKOV-3 (ATCC HTB-77); experiment: SKOV-3 EdU incorporation cell proliferation assay (CDK4/6-dependent); format: cell-based; conditions: for IC50: Homo sapiens, SK-OV-3, Table O, cellular assay, read-out: CDK4/6 SKOV-3 IC50; for FS SKOV-3/OVISE: fold selectivity, cellular IC50 ratio
# Method in brief: (§1)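 Cells in RPMI/10% FBS dosed with compound (0.5% DMSO final) for 16 h at 37 °C, 5% CO2, then EdU 0.5 μM final for 8 h before fixation and imaging. IC50 from 4-parameter logistic fit of EdU-positive cell fraction versus dose.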
# [2] = target: T1, Cyclin Dependent Kinase 1/Cyclin A2 (CDK1-cycA2) (Homo sapiens, UniProt P06493); experiment: CDK1-cycA2 TR-FRET (Lance) enzyme assay; format: biochemical; conditions: for Ki: Table O, enzymatic assay; for FS CDK1/CDK2: fold selectivity, enzymatic Ki ratio
# T1 construct: purchased ProQinase 0134-0054-1
# Method in brief: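 Human CDK1/cyclin A2 pre-incubated 30 min with compound dose responses in 50 mM HEPES pH 7.5, 10 mM MgCl2, 2 mM TCEP, 0.05% BGG, 0.01% Brij 35. Reaction quenched with EDTA (15 mM final); TR-FRET readout using Eu-anti-phospho-4E-BP1, acceptor/donor ratio. Inhibition constants from Morrison equation.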
# [3] = target: T2, Cyclin Dependent Kinase 4/Cyclin D3 (CDK4-cycD3) (Homo sapiens, UniProt P11802); experiment: CDK4-cycD3 TR-FRET (LANCE) enzyme assay; format: biochemical; conditions: for Ki: Table O, enzymatic assay; for FS CDK4/CDK2: fold selectivity, enzymatic Ki ratio
# T2 construct: purchased Carna Biosciences 04-105
# Method in brief: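 Compound dose responses pre-incubated 30 min with enzyme mix in 50 mM HEPES pH 7.5, 10 mM MgCl2, 2 mM TCEP, 0.05% BGG, 0.01% Brij 35. Reaction quenched with EDTA (15 mM final); Eu-anti-phospho-4E-BP1 TR-FRET detection, acceptor/donor ratio. Ki derived by Morrison equation.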
# [4] = target: T3, Cyclin Dependent Kinase 2/Cyclin E1 (CDK2-cycE1) (Homo sapiens, UniProt P24941); experiment: CDK2-cycE1 TR-FRET (LANCE) enzyme assay; format: biochemical; conditions: for Ki: enzymatic assay, read-out: CDK2 Ki; for FS CDK1/CDK2 / FS CDK4/CDK2: fold selectivity; for FS CDK1/CDK2: enzymatic CDK1 Ki over CDK2 Ki; for FS CDK4/CDK2: enzymatic CDK4 Ki over CDK2 Ki
# T3 construct: purchased ProQinase 0050-0055-1
# Method in brief: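 Compound dose responses pre-incubated 30 min with CDK2-cycE1 in 50 mM HEPES pH 7.5, 10 mM MgCl2, 2 mM TCEP, 0.05% BGG, 0.01% Brij 35. Reaction quenched with EDTA (15 mM final), phospho-MBP detected by Eu-anti-phospho-MBP TR-FRET (acceptor/donor ratio). Inhibition constants from Morrison equation.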
# [5] = system: OVISE (JCRB1043, CCNE1-amplified); experiment: OVISE EdU incorporation cell proliferation assay (CDK2-dependent); format: cell-based; conditions: for IC50 / FS SKOV-3/OVISE: Table O; for IC50: cellular assay, read-out: CDK2 OVISE IC50; for FS SKOV-3/OVISE: fold selectivity, cellular SKOV-3 IC50 over OVISE IC50
# Method in brief: as §1
# T1 sequence (P06493 whole entry): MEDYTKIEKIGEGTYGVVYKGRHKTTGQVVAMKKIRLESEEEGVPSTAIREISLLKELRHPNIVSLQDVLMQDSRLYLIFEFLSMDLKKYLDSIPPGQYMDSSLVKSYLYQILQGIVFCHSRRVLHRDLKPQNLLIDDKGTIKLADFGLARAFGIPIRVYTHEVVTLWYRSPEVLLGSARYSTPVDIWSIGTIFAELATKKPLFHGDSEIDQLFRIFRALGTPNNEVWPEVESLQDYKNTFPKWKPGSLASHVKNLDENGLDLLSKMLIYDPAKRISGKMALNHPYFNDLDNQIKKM
# T1 sequence (P20248 whole entry partner): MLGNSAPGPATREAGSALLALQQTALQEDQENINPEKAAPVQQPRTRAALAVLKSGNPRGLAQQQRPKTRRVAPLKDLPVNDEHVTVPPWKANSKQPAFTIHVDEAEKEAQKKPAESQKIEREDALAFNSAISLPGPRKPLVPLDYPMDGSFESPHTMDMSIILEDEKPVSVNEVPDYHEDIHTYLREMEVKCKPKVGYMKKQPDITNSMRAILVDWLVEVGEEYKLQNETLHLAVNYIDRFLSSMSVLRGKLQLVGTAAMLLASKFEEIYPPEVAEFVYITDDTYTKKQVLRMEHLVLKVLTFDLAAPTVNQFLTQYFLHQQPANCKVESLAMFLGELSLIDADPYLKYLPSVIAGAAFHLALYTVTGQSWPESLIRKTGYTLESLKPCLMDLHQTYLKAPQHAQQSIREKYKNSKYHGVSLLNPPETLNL
# T2 sequence (P11802 whole entry): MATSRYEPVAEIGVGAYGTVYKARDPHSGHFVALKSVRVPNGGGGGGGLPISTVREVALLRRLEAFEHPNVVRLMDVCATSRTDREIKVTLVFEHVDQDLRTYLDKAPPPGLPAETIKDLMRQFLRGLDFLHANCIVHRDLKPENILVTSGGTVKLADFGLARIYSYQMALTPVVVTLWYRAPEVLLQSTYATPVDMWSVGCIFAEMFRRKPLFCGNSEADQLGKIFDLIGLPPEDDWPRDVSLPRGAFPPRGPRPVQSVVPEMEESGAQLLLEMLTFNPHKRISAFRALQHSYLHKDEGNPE
# T2 sequence (P30281 whole entry partner): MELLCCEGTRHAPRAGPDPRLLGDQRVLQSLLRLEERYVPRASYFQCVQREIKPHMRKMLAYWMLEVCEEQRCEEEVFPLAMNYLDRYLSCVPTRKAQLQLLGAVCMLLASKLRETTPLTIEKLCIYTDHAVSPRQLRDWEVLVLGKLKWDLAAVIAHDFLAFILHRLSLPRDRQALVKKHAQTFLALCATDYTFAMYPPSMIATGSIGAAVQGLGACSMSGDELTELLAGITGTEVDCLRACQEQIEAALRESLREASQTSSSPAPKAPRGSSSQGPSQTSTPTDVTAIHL
IC50 [1] [µM],Ki [2] [µM],Ki [3] [µM],Ki ([4]; Table O) [µM],FS CDK1/CDK2 ([4]; Table O),FS CDK4/CDK2 ([4]; Table O),SMILES,IC50 [5] [µM],FS SKOV-3/OVISE [5],also measured
5.8,0.27,0.28,0.011,25,25,"O=C(NC1(C(F)(F)F)CC1)O[C@@H]1CC[C@H](c2cc(Nc3cccnn3)n[nH]2)C1 [Example 5, (1R,3S)-3-(3-(pyridazin-3-ylamino)-1H-pyrazol-5-yl)cyclopentyl (1-(trifluoromethyl)cyclopropyl)carbamate]",0.46,13,
> 20,0.55,0.59,0.014,39,42,"CNC(=O)c1ccc(Nc2cc([C@H]3CC[C@@H](OC(=O)NC4(C)CC4)C3)[nH]n2)c(C)n1 [Example 7A, (1R,3S)-3-(3-((2-methyl-6-(methylcarbamoyl)pyridin-3-yl)amino)-1H-pyrazol-5-yl)cyclopentyl (1-methylcyclopropyl)carbamate]",1.4,>14,
> 20,3.3,6.5,0.3,11,22,"Cc1ncccc1Nc1cc([C@H]2CC[C@@H](OC(=O)N[C@@H]3CCN(C)C3)C2)[nH]n1 [Example 7B, (1R,3S)-3-(3-((2-methylpyridin-3-yl)amino)-1H-pyrazol-5-yl)cyclopentyl ((R)-1-methylpyrrolidin-3-yl)carbamate]",17,>1.2,
> 20,3.5,4.2,0.26,13,16,"Cc1ncccc1Nc1cc([C@H]2CC[C@@H](OC(=O)N[C@H]3CCN(C)C3)C2)[nH]n1 [Example 7C, (1R,3S)-3-(3-((2-methylpyridin-3-yl)amino)-1H-pyrazol-5-yl)cyclopentyl ((S)-1-methylpyrrolidin-3-yl)carbamate]",8,>2.5,
> 20,0.37,1.2,0.023,16,52,"Cc1ncccc1Nc1cc([C@H]2CC[C@@H](OC(=O)NC3CC(O)C3)C2)[nH]n1 (stereo partly drawn) [Example 7D, (1R,3S)-3-(3-((2-methylpyridin-3-yl)amino)-1H-pyrazol-5-yl)cyclopentyl ((1s,3s)-3-hydroxycyclobutyl)carbamate]",1.6,>13,
> 20,0.34,6,0.012,28,500,"Cc1cc(Nc2cc([C@H]3CC[C@@H](OC(=O)NC45CC(C4)C5)C3)[nH]n2)c(C)nn1 [Example 9D, (1R,3S)-3-(3-((3,6-dimethylpyridazin-4-yl)amino)-1H-pyrazol-5-yl)cyclopentyl bicyclo[1.1.1]pentan-1-ylcarbamate]",5,>4,
> 20,0.08,0.46,0.005,16,92,"CNC(=O)c1ncc(Nc2cc([C@H]3CC[C@@H](OC(=O)NC45CC(C4)C5)C3)[nH]n2)c(C)n1 [Example 9F, (1R,3S)-3-(3-((4-methyl-2-(methylcarbamoyl)pyrimidin-5-yl)amino)-1H-pyrazol-5-yl)cyclopentyl bicyclo[1.1.1]pentan-1-ylcarbamate]",1.2,>17,
15,0.77,1.3,0.012,64,110,"Cc1cnccc1Nc1cc([C@H]2CC[C@@H](OC(=O)NC34CC(C3)C4)C2)[nH]n1 [Example 9G, (1R,3S)-3-(3-((3-methylpyridin-4-yl)amino)-1H-pyrazol-5-yl)cyclopentyl bicyclo[1.1.1]pentan-1-ylcarbamate]",0.34,44,
> 20,5.1,> 50,0.13,39,385,"COc1cc(=O)n(C)cc1Nc1cc([C@H]2CC[C@@H](OC(=O)NC34CC(C3)C4)C2)[nH]n1 [Example 10, (1R,3S)-3-(3-((4-methoxy-1-methyl-6-oxo-1,6-dihydropyridin-3-yl)amino)-1H-pyrazol-5-yl)cyclopentyl bicyclo[1.1.1]pentan-1-ylcarbamate]",16,>1.3,
> 20,0.89,1.1,0.012,74,92,"O=C(NC12CC(C1)C2)O[C@@H]1CC[C@H](c2cc(Nc3ccnnc3C3CC3)n[nH]2)C1 [Example 11, (1R,3S)-3-(3-((3-cyclopropylpyridazin-4-yl)amino)-1H-pyrazol-5-yl)cyclopentyl bicyclo[1.1.1]pentan-1-ylcarbamate]",2.6,>7.7,

SMILES,IC50 [1] [µM],Ki [2] [µM],Ki [3] [µM],Ki ([4]; Table O) [µM],FS CDK1/CDK2 ([4]; Table O),FS CDK4/CDK2 ([4]; Table O),IC50 [5] [µM],FS SKOV-3/OVISE [5],also measured
"Cc1cc(=O)n(C)nc1Nc1cc([C@H]2CC[C@@H](OC(=O)NC(C)(C)C)C2)[nH]n1 [Example 4C, (1R,3S)-3-(3-((1,4-dimethyl-6-oxo-1,6-dihydropyridazin-3-yl)amino)-1H-pyrazol-5-yl)cyclopentyl tert-butylcarbamate]",19,0.065,0.58,0.0021,31,280,0.6,32,"selectivity for CDK2 over CDK4 compared with Comparator E ([1]; SKOV-3/OVISE fold-selectivity cellular assay data): increase in selectivity for CDK2 over CDK4; FS SKOV-3/OVISE increased over Comparator D, (+) sign ([1]; Table R): (+); FS SKOV-3/OVISE ([1]; Table R): 32; FS SKOV-3/OVISE increased over Comparator E, (+) sign ([1]; Table S): (+); FS SKOV-3/OVISE ([1]; Table S): 32; FS CDK1/CDK2 increased over Comparator D, (+) sign ([2]; Table R): (+); FS CDK1/CDK2 ([2]; Table R): 31; FS CDK1/CDK2 ([2]; Table S): 31; FS CDK4/CDK2 increased over Comparator D, (+) sign ([3]; Table R): (+); FS CDK4/CDK2 ([3]; Table R): 280; FS CDK4/CDK2 increased over Comparator E, (+) sign ([3]; Table S): (+); FS CDK4/CDK2 ([3]; Table S): 280; Ki ([4]; Table R): 0.0021 µM; CDK2 Ki fold change in potency versus Comparator D ([4]; Table R, in brackets after CDK2 Ki): 1.3 fold; Ki ([4]; Table S): 0.0021 µM; CDK2 Ki fold change in potency versus Comparator E ([4]; Table S, in brackets after CDK2 Ki): 0.3 fold; CDK2 OVISE IC50 fold change in potency versus Comparator D ([5]; Table R, in brackets after OVISE IC50): 6 fold; CDK2 OVISE IC50 fold change in potency versus Comparator E ([5]; Table S, in brackets after OVISE IC50): 0.3 fold"
